Earlier results, collected in patent US12421495B2, “Compositions and methods for selective phagocytosis of human cancer cells” (THE TRUSTEES OF THE UNIVERSITY OF PENNSYLVANIA, priority 2015, dated 2025).

Test system: tdTomato A549 tumors
Conditions: same tumor model; Nair et al. 2016

## CC(=O)O[C@H]1C(=O)[C@@]2(C)[C@H]([C@H](OC(=O)c3ccccc3)[C@]3(O)C[C@H](OC(=O)[C@H](O)[C@@H](NC(=O)c4ccccc4)c4ccccc4)C(C)=C1C3(C)C)[C@]1(OC(C)=O)CO[C@@H]1C[C@@H]2O [Paclitaxel]
  tumor shrinkage by day 10: −25%
